Measured values reported in ChEMBL document CHEMBL1132520, “Antimalarial activity of 3-hydroxyalkyl-2-methylene-propionic acid derivatives” (1999).
Calls of active or inactive are those of the source. The rule behind the calls is not given here.

What was measured:
[1] = tested on: Plasmodium falciparum; experiment: In vitro antimalarial activity for Plasmodium falciparum at 1 uM/well dose at 24 hrs in Schizont maturation assay; type: functional
[2] = tested on: Plasmodium falciparum; experiment: In vitro antimalarial activity for Plasmodium falciparum at 10 uM/well dose at 24 hrs in Schizont maturation assay; type: functional
[3] = tested on: Plasmodium falciparum; experiment: In vitro antimalarial activity for Plasmodium falciparum at 500 uM/well dose at 24 hrs in Schizont maturation assay; type: functional
[4] = tested on: Plasmodium falciparum; experiment: In vitro antimalarial activity for Plasmodium falciparum at 5 uM/well dose at 24 hrs in Schizont maturation assay; type: functional
[5] = tested on: Plasmodium falciparum; experiment: In vitro antimalarial activity for Plasmodium falciparum at 100 uM/well dose at 24 hrs in Schizont maturation assay; type: functional
[6] = tested on: Plasmodium falciparum; experiment: In vitro antimalarial activity for Plasmodium falciparum at 50 uM/well dose at 24 hrs in Schizont maturation assay; type: functional
[7] = tested on: Plasmodium falciparum; experiment: In vitro inhibition of Plasmodium falciparum at 20 uM/well dose at 72 hrs in total parasite growth assay; Not determined; type: functional
[8] = tested on: Plasmodium falciparum; experiment: In vitro inhibition of Plasmodium falciparum at 5 uM/well dose at 72 hrs in total parasite growth assay; type: functional
[9] = tested on: Mus musculus; experiment: Anti-malarial activity against Plasmodium berghei evaluated in terms of mean survival time for mice (Mus musculus) at a dose of 20 mg/kg; type: functional
[10] = tested on: Plasmodium falciparum; experiment: In vitro inhibition of Plasmodium falciparum at 1.0 uM/well dose at 72 hrs in total parasite growth assay; type: functional
[11] = tested on: Plasmodium falciparum; experiment: In vitro antimalarial activity for Plasmodium falciparum at 2.5 uM/well dose at 24 hrs in Schizont maturation assay; type: functional
[12] = tested on: Mus musculus; experiment: Antimalarial activity against Plasmodium berghei evaluated in terms of mean survival time for mice (Mus musculus) at a dose of 40 mg/kg; type: functional
[13] = tested on: Plasmodium falciparum; experiment: In vitro inhibition of Plasmodium falciparum at 10 uM/well dose at 72 hrs in total parasite growth assay; type: functional
[14] = tested on: Plasmodium falciparum; experiment: In vitro inhibition of Plasmodium falciparum at 2.5 uM/well dose at 72 hrs in total parasite growth assay; type: functional
[15] = tested on: Plasmodium falciparum; experiment: In vitro inhibition of Plasmodium falciparum at 100 uM/well dose at 72 hrs in total parasite growth assay; type: functional
[16] = tested on: Mus musculus; experiment: Antimalarial activity against Plasmodium berghei evaluated in terms of mean survival time for mice (Mus musculus) at a dose of 160 mg/kg; type: functional
[17] = tested on: Plasmodium falciparum; experiment: In vitro inhibition of Plasmodium falciparum at 50 uM/well dose at 72 hrs in total parasite growth assay; type: functional
[18] = tested on: Plasmodium falciparum; experiment: In vitro antimalarial activity for Plasmodium falciparum at 20 uM/well dose at 24 hrs in Schizont maturation assay; type: functional
[19] = tested on: Plasmodium falciparum; experiment: In vitro antimalarial activity for Plasmodium falciparum at 0.25 uM/well dose at 24 hrs in Schizont maturation assay; type: functional
[20] = tested on: Mus musculus; experiment: Antimalarial activity against Plasmodium berghei evaluated in terms of mean survival time for mice (Mus musculus) at a dose of 80 mg/kg; type: functional
[21] = tested on: Plasmodium falciparum; experiment: In vitro inhibition of Plasmodium falciparum at 0.5 uM/well dose at 72 hrs in total parasite growth assay; type: functional
[22] = tested on: Plasmodium falciparum; experiment: In vitro antimalarial activity for Plasmodium falciparum at 0.10 uM/well dose at 24 hrs in Schizont maturation assay; type: functional
[23] = tested on: Plasmodium falciparum; experiment: In vitro inhibition of Plasmodium falciparum at 0.25 uM/well dose at 72 hrs in total parasite growth assay; type: functional
[24] = tested on: Plasmodium falciparum; experiment: In vitro antimalarial activity for Plasmodium falciparum at 0.50 uM/well dose at 24 hrs in Schizont maturation assay; type: functional
[25] = tested on: Mus musculus; experiment: In vivo antimalarial activity against Plasmodium berghei in mice (Mus musculus); Inactive; type: functional, organism-based
[26] = tested on: Plasmodium falciparum; experiment: In vitro inhibition of Plasmodium falciparum at 25 uM/well dose at 72 hrs in total parasite growth assay; type: functional
[27] = tested on: Plasmodium falciparum; experiment: In vitro inhibition of Plasmodium falciparum at 20 uM/well dose at 72 hrs in total parasite growth assay; type: functional
[28] = tested on: Plasmodium falciparum; experiment: In vitro antimalarial activity for chloroquine-resistant Plasmodium falciparum at 5 uM/well dose at 24 hrs in Schizont maturation assay; type: functional
[29] = tested on: Plasmodium falciparum; experiment: In vitro antimalarial activity for chloroquine-resistant Plasmodium falciparum at 10 uM/well dose at 24 hrs in Schizont maturation assay; type: functional
[30] = tested on: Mus musculus; experiment: In vivo anti-malarial activity against Plasmodium berghei in mice (Mus musculus) at a dose of 80 mg/kg; Active; type: functional, organism-based; set-up: dose 80 mg/kg
[31] = tested on: Plasmodium falciparum; experiment: In vitro antimalarial activity for chloroquine-resistant Plasmodium falciparum at 50 uM/well dose at 24 hrs in Schizont maturation assay; type: functional
[32] = tested on: Plasmodium falciparum; experiment: In vitro antimalarial activity for chloroquine-resistant Plasmodium falciparum at 2.5 uM/well dose at 24 hrs in Schizont maturation assay; type: functional
[33] = tested on: Plasmodium falciparum; experiment: In vitro antimalarial activity for chloroquine-resistant Plasmodium falciparum at 0.10 uM/well dose at 24 hrs in Schizont maturation assay; type: functional
[34] = tested on: Plasmodium falciparum; experiment: In vitro antimalarial activity for chloroquine-resistant Plasmodium falciparum at 0.5 uM/well dose at 24 hrs in Schizont maturation assay; type: functional
[35] = tested on: Plasmodium falciparum; experiment: In vitro inhibition of chloroquine-resistant Plasmodium falciparum at 0.25 uM/well dose at 72 hrs in total parasite growth assay; type: functional
[36] = tested on: Mus musculus; experiment: In vivo anti-malarial activity against Plasmodium berghei in mice (Mus musculus) at a dose of 160 mg/kg; Active; type: functional, organism-based; set-up: dose 160 mg/kg
[37] = tested on: Plasmodium falciparum; experiment: In vitro antimalarial activity for chloroquine-resistant Plasmodium falciparum at 20 uM/well dose at 24 hrs in Schizont maturation assay; type: functional
[38] = tested on: Plasmodium falciparum; experiment: In vitro antimalarial activity for chloroquine-resistant Plasmodium falciparum at 0.25 uM/well dose at 24 hrs in Schizont maturation assay; type: functional
[39] = tested on: Plasmodium falciparum; experiment: In vitro inhibition of chloroquine-resistant Plasmodium falciparum at 0.5 uM/well dose at 72 hrs in total parasite growth assay; type: functional
[40] = tested on: Plasmodium falciparum; experiment: In vitro antimalarial activity for chloroquine-resistant Plasmodium falciparum at 100 uM/well dose at 24 hrs in Schizont maturation assay; type: functional
[41] = tested on: Plasmodium falciparum; experiment: In vitro inhibition of chloroquine-resistant Plasmodium falciparum at 1.0 uM/well dose at 72 hrs in total parasite growth assay; type: functional
[42] = tested on: Plasmodium falciparum; experiment: In vitro antimalarial activity for chloroquine-resistant Plasmodium falciparum at 1 uM/well dose at 24 hrs in Schizont maturation assay; type: functional

Row | SMILES | inhibition at 1 µM [1] [%] | inhibition at 10 µM [2] [%] | inhibition at 500 µM [3] [%] | inhibition at 5 µM [4] [%] | inhibition at 100 µM [5] [%] | inhibition at 50 µM [6] [%] | PGI [8] [%] | Mean survival time [9] [days] | PGI [10] [%] | Mean survival time [12] [days] | PGI [13] [%] | PGI [14] [%] | PGI [15] [%] | Mean survival time [16] [days] | inhibition at 0.25 µM [19] [%] | Mean survival time [20] [days] | PGI [21] [%] | inhibition at 0.1 µM [22] [%] | PGI [23] [%] | inhibition at 0.5 µM [24] [%] | other results
1 | C=C(C(=O)OC)C(O)c1ccc([N+](=O)[O-])cc1 (configuration not stated) | 2.6 | 44.7 | 100 | 18.4 | 81.6 | 52.6 |  |  |  |  |  |  |  |  |  |  |  |  |  |  | 
2 | C=C(C(=O)OC)C(O)c1ccccc1 (configuration not stated) | 43 | 100 |  | 93 | 100 | 100 | 100 | 6 | 40 | 7 | 100 | 62.5 | 100 | 12 | 0 | 10.2 | 7.5 | 0 | 0 | 7 | PGI [7]: 100%; inhibition at 2.5 µM [11]: 64%; PGI [17]: 100%; inhibition at 20 µM [18]: 100%; Activity [25]: inactive
3 | C=C(C#N)C(O)/C=C(\C)CCC=C(C)C (configuration not stated) |  |  |  |  |  |  |  | 7.3 |  | 8.6 |  |  |  | 11.6 |  | 9.8 |  |  |  |  | Activity [25]: inactive
4 | C=C(C#N)C(O)c1ccc(OC)c(OC)c1 (configuration not stated) | 5.26 | 42 | 100 | 21 | 100 | 71 |  |  |  |  |  |  |  |  | 0 |  |  | 0 |  | 0 | 
5 | C=C(C(=O)OC)C(O)c1ccco1 (configuration not stated) |  |  |  |  |  |  | 85.7 |  | 20 |  | 98 | 42.8 | 100 |  |  |  |  |  | 0 |  | PGI [26]: 100%
6 | C=C(C#N)C(O)c1ccc([N+](=O)[O-])cc1 (configuration not stated) | 75.2 | 100 | 100 | 100 | 100 | 100 | 100 | 9.4 | 100 | 11.8 | 100 | 100 | 100 | 14.4 | 56.4 | 12.8 | 92 | 41.2 | 83 | 68 | PGI [27]: 100%; inhibition at 5 µM [28]: 100%; inhibition at 10 µM [29]: 100%; Activity [30]: Active; inhibition at 50 µM [31]: 100%; inhibition at 2.5 µM [32]: 100%; inhibition at 0.1 µM [33]: 47.7%; inhibition at 0.5 µM [34]: 75%; PGI [35]: 73%; Activity [36]: Active; inhibition at 2.5 µM [11]: 84%; inhibition at 20 µM [37]: 100%; PGI [26]: 100%; inhibition at 0.25 µM [38]: 58%; PGI [17]: 100%; PGI [39]: 82%; inhibition at 100 µM [40]: 100%; inhibition at 20 µM [18]: 100%; PGI [41]: 94%; inhibition at 1 µM [42]: 86%
7 | C=C(C(=O)OC)C(O)/C=C(\C)CCC=C(C)C (configuration not stated) |  |  |  |  |  |  |  | 7.2 |  | 8.4 |  |  |  | 11.4 |  | 9.6 |  |  |  |  | Activity [25]: inactive
8 | C=C(CCC(C)=O)C(C)=O | 52.6 | 100 | 100 | 100 | 100 | 100 | 88.6 |  | 8.6 |  | 100 | 65.7 | 100 |  |  |  |  |  |  |  | PGI [26]: 100%
9 | C=C(C#N)C(OCCC#N)c1ccc2c(c1)OCO2 (configuration not stated) | 43 | 93 |  | 64 | 100 | 100 | 52.5 | 7.8 | 25 | 9.2 | 90 | 40 | 100 | 14.2 | 6 | 11.4 | 10 | 0 | 0 | 36 | PGI [27]: 95%; Activity [36]: Active; inhibition at 2.5 µM [11]: 57%; PGI [17]: 100%; inhibition at 20 µM [18]: 100%
10 | C=C(C(=O)OC)C(O)c1cccnc1 (configuration not stated) | 43 | 100 |  | 100 | 100 | 100 | 92.5 |  | 50 |  | 100 | 75 | 100 |  | 5 |  | 25 | 0 | 5 | 29 | PGI [7]: 100%; inhibition at 2.5 µM [11]: 64%; PGI [17]: 100%; inhibition at 20 µM [18]: 100%
11 | C=C(C#N)C(O)c1cc(OC)c(OC)c(OC)c1 (configuration not stated) | 64 | 100 | 100 | 82.4 | 100 | 100 | 100 | 6 | 94 | 7.6 | 100 | 100 | 100 | 12.4 | 30 | 10.4 | 86 | 0 | 73 | 42.4 | PGI [27]: 100%; inhibition at 5 µM [28]: 81%; inhibition at 10 µM [29]: 100%; inhibition at 50 µM [31]: 100%; inhibition at 2.5 µM [32]: 69%; inhibition at 0.1 µM [33]: 4.2%; inhibition at 0.5 µM [34]: 48.6%; PGI [35]: 70%; Activity [36]: Active; inhibition at 2.5 µM [11]: 76.5%; inhibition at 20 µM [37]: 100%; PGI [26]: 100%; inhibition at 0.25 µM [38]: 30%; PGI [17]: 100%; PGI [39]: 81%; inhibition at 100 µM [40]: 100%; inhibition at 20 µM [18]: 100%; PGI [41]: 90%; inhibition at 1 µM [42]: 65%
12 | C=C(C#N)C(O)c1ccco1 (configuration not stated) |  |  |  |  |  |  | 68.6 |  | 31.4 |  | 79 | 40 | 100 |  |  |  | 14 |  |  |  | PGI [26]: 84%
